Literature values in patent US12527745B2, “Pharmaceutical dosage form for an emulsion of simethicone and loperamide” (R.P. SCHERER TECHNOLOGIES, LLC, priority 2018, dated 2026).

Conditions: single surfactant

Row | Substance | HLB
1 | Polysorbate 80 | 15
2 | sorbitan mono-oleate | 4.3
